The record followed here is PubChem BioAssay AID624142 (National Center for Advancing Translational Sciences (NCATS), 2012).

Structures are written as SMILES.

The data set relates to human liver microsomes, half-life, LC-MS/MS. Kind of data set: qHTS Assay to Find Inhibitors of T. brucei phosphofructokinase: Human Liver Microsome Stability. To be noted: at 1 µM; stronger effect = higher value. On the technique in general: qHTS replaces the single test concentration by a dilution series.

Take `O=C(Cc1ccc(Cl)c(Cl)c1)Nc1ccc(S(=O)(=O)Nc2ccon2)cc1`: the half-life was 5.5 h.

By half-life is commonly meant the time needed for the level to fall by half in the phase considered.
